Assay results from ChEMBL document CHEMBL1147565, “Imidazo[1,2-a]pyridines. Part 2: SAR and optimisation of a potent and selective class of cyclin-dependent kinase inhibitors” (Bioorg Med Chem Lett, 2004).

Molecular target: Cyclin-dependent kinase 2 (Homo sapiens, UniProt P24941)
Test: Inhibitory concentration against cyclin-dependent kinase 2
Conditions: not given

Row | Structure (SMILES) | IC50 [µM]
1 | COCCNS(=O)(=O)c1ccc(Nc2nccc(-c3cnc4ccc(Sc5ccccc5)cn34)n2)cc1 | 0.016
2 | Cc1nc2ccccn2c1-c1ccnc(Nc2ccccc2Cl)n1 | 8.8
3 | CNS(=O)(=O)c1ccc(Nc2nccc(-c3cnc4ccccn34)n2)cc1 | < 0.003
4 | COCCNS(=O)(=O)c1ccc(Nc2nccc(-c3cnc4ccccn34)n2)cc1 | 0.012
5 | COCCNS(=O)(=O)c1ccc(Nc2nccc(-c3cnc4ccc(C#N)cn34)n2)cc1 | < 0.003
6 | COCCNS(=O)(=O)c1ccc(Nc2ncc(Br)c(-c3cnc4ccccn34)n2)cc1 | < 0.003
7 | CN(C)CCCN(C)S(=O)(=O)c1ccc(Nc2nccc(-c3cnc4ccccn34)n2)cc1 | 0.005
8 | CN(C)CCCNS(=O)(=O)c1ccc(Nc2nccc(-c3cnc4ccccn34)n2)cc1 | < 0.003
9 | Cc1nc2ccccn2c1-c1ccnc(Nc2ccccc2)n1 | 0.21
10 | COCCNS(=O)(=O)c1ccc(Nc2ncc(Cl)c(-c3cnc4ccccn34)n2)cc1 | < 0.003
11 | Clc1cccc(Nc2nccc(-c3cnc4ccccn34)n2)c1 | 0.005
12 | Cc1nc2ccccn2c1-c1ccnc(Nc2ccc(S(N)(=O)=O)cc2)n1 | 0.038
13 | CN(C)CCNS(=O)(=O)c1ccc(Nc2nccc(-c3cnc4ccccn34)n2)cc1 | 0.005
14 | c1ccc(Nc2nccc(-c3cnc4ccccn34)n2)cc1 | < 0.003
15 | COCCNS(=O)(=O)c1ccc(Nc2ncc(Sc3ccccc3)c(-c3cnc4ccccn34)n2)cc1 | > 10
16 | COCCNS(=O)(=O)c1ccc(Nc2nccc(-c3cnc4ccc(Br)cn34)n2)cc1 | < 0.003
17 | Cc1nc2ccccn2c1-c1ccnc(Nc2cccc(Cl)c2)n1 | 0.15
18 | CCSc1ccc2ncc(-c3ccnc(Nc4ccc(S(=O)(=O)NCCOC)cc4)n3)n2c1 | < 0.003
19 | COCCCNS(=O)(=O)c1ccc(Nc2nccc(-c3cnc4ccccn34)n2)cc1 | 0.004
20 | NS(=O)(=O)c1ccc(Nc2nccc(-c3cnc4ccccn34)n2)cc1 | < 0.003
21 | Cc1nc2ccccn2c1-c1ccnc(Nc2ccc(Cl)cc2)n1 | 0.62
22 | Clc1cccc(Nc2nccc(-n3cnc4ccccc43)n2)c1 | 0.68

Molecular target: Cyclin-dependent kinase 1 (Homo sapiens, UniProt P06493)
Test: Inhibition of Cyclin-dependent kinase 1
Conditions: not given

Cyclin-dependent kinase 1, sequence (P06493 whole entry): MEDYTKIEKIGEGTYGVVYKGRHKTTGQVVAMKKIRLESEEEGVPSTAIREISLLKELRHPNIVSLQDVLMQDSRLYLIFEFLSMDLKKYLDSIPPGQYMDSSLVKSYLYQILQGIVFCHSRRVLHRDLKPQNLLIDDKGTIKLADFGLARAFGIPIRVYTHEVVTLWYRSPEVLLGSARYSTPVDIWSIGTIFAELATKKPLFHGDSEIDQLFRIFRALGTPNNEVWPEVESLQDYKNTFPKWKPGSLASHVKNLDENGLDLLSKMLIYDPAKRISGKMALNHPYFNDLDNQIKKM

Row | Structure (SMILES) | IC50 [µM]
23 | CN(C)CCNS(=O)(=O)c1ccc(Nc2nccc(-c3cnc4ccccn34)n2)cc1 | 0.015
24 | COCCCNS(=O)(=O)c1ccc(Nc2nccc(-c3cnc4ccccn34)n2)cc1 | 0.006

Molecular target: Cyclin-dependent kinase 4 (Homo sapiens, UniProt P11802)
Test: Inhibition of Cyclin-dependent kinase 4
Conditions: not given

Cyclin-dependent kinase 4, sequence (P11802 whole entry): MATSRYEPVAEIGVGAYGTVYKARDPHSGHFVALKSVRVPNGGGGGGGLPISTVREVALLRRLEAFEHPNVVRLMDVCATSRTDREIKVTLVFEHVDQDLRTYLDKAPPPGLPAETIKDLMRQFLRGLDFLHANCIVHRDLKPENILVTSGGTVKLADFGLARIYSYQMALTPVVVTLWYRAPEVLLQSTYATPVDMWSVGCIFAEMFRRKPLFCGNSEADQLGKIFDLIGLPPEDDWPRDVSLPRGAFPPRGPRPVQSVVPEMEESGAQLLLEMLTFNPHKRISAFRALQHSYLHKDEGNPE

Row | Structure (SMILES) | IC50 [µM]
25 | CN(C)CCNS(=O)(=O)c1ccc(Nc2nccc(-c3cnc4ccccn34)n2)cc1 | 0.26
26 | COCCCNS(=O)(=O)c1ccc(Nc2nccc(-c3cnc4ccccn34)n2)cc1 | 3.1

System: MCF7
Test: Inhibition of cyclin-dependent kinase phosphorylation of S249-T252 of Rb protein in MCF-7 cells
Assay type: functional, cell-based
Conditions: Homo sapiens

Row | Structure (SMILES) | IC50 [µM]
27 | CN(C)CCNS(=O)(=O)c1ccc(Nc2nccc(-c3cnc4ccccn34)n2)cc1 | 0.05
28 | COCCCNS(=O)(=O)c1ccc(Nc2nccc(-c3cnc4ccccn34)n2)cc1 | 0.4

System: MCF7
Test: Inhibitory activity against BrdU incorporation to MCF-7 cell line following 3 day exposure to compound
Assay type: functional, cell-based
Conditions: Homo sapiens, MCF7, 72 h

Row | Structure (SMILES) | IC50 [µM]
29 | CNS(=O)(=O)c1ccc(Nc2nccc(-c3cnc4ccccn34)n2)cc1 | 0.26
30 | COCCNS(=O)(=O)c1ccc(Nc2nccc(-c3cnc4ccccn34)n2)cc1 | 0.39
31 | CN(C)CCCN(C)S(=O)(=O)c1ccc(Nc2nccc(-c3cnc4ccccn34)n2)cc1 | 0.44
32 | CN(C)CCCNS(=O)(=O)c1ccc(Nc2nccc(-c3cnc4ccccn34)n2)cc1 | 0.07
33 | CN(C)CCNS(=O)(=O)c1ccc(Nc2nccc(-c3cnc4ccccn34)n2)cc1 | 0.07
34 | COCCCNS(=O)(=O)c1ccc(Nc2nccc(-c3cnc4ccccn34)n2)cc1 | 0.6
